Measurements: US9447086B2, “6-amino acid heteroaryldihydropyrimidines for the treatment and prophylaxis of hepatitis B virus infection” (priority 2012, dated 2016)
In brackets after ≈: the same amount, converted by molar mass.

Legend:
[1] = Metabolic stability study in human microsome; type: in vitro ADME
Summary of the method: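 Depletion of 1 μM compound followed by LC-MS/MS over 0–30 min (0, 3, 6, 9, 15, 30 min) after methanol quench. Incubations at 37 °C, pH 7.4 phosphate buffer, 0.5 mg/mL microsomal protein, with NADPH (1 mM) or a regenerating system as cofactor; controls lacked cofactor.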

HBV [2] = test: Selectivity index (CC50 value/EC50 value); type: cell-based, Hepatitis B virus
Summary of the method: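 Ratio of CC50 to EC50, measuring antiviral activity against HBV relative to cytotoxicity in vitro; higher values indicate greater separation between viral inhibition and cell death.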

[3] = Lyophilisation solubility assay (Lysa); type: physicochemical; conditions: phosphate buffer, pH 6.5, aqueous buffer, thermodynamic from solid
Summary of the method: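 Solubility in μg/mL is read by UV or HPLC-UV on filtrate, neat and diluted 1/10. Before filtration, the residue from evaporated 10 mM DMSO stock was taken up in pH 6.5 0.05 M phosphate buffer, then stirred 1 h, shaken 2 h and stood overnight, in duplicate.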

HepDE19 cells = test: Cytotoxicity (CC50) in HepDE19 cells, CCK-8 cell viability; type: cell-based
Summary of the method: (§1)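 HBV-transfected HepG2-derived HepDE19 cells grown in DMEM-F12 with 10% FBS and G418. Viability read five days after treatment by CCK-8, 2 h at 37 °C, absorbance at 450 and 630 nm.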

HBV [4] = test: Anti-HBV activity in vitro in HepG2.2.15 cells (extracellular HBV DNA by qPCR); type: cell-based, Hepatitis B virus; conditions: Hepatitis B virus; HepG2.2.15 cells; in-house data; read-out: EC50
Summary of the method: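 Supernatant HBV DNA was measured by qPCR after viral DNA extraction. Samples came from 5-day cultures of HepG2.2.15 cells, an HBV-genome-transfected HepG2 line, exposed to half-log compound dilutions in medium containing 0.5% DMSO.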

[5] = Cytotoxicity (CC50) in HepDE19 cells, CCK-8 cell viability; type: cell-based; conditions: human, HepDE19 cells; read-out: CC50
Summary of the method: as §1

| Structure (SMILES) | Human Hepatic Clearance [1] [mL/min/kg] | Selectivity index (CC50/EC50) (HBV [2]) | solubility thermodynamic [3] [µg/mL] | CC50 (HepDE19 cells) [nM] | EC50 (HBV [4]) [nM] | CC50 at 5 days [5] [nM] |
| --- | --- | --- | --- | --- | --- | --- |
| COC(=O)C1=C(CN2CCOC[C@H]2C(=O)O)NC(c2nc(C)cs2)=N[C@H]1c1ccc(F)cc1Cl [Example 17, (S)-4-[(R)-6-(2-Chloro-4-fluoro-phenyl)-5-methoxycarbonyl-2-(4-methyl-thiazol-2-yl)-3,6-dihydro-pyrimidin-4-ylmethyl]-morpholine-3-carboxylic acid] | 0.74 | >14286 | > 673 | > 100000 | 7 |  |
| COC(=O)C1=C(CN2CCOC[C@H]2C(=O)O)NC(c2ncoc2C)=N[C@H]1c1cccc(F)c1Cl [Example 103, (S)-4-[(R)-6-(2-Chloro-3-fluoro-phenyl)-5-methoxycarbonyl-2-(5-methyl-oxazol-4-yl)-3,6-dihydro-pyrimidin-4-ylmethyl]-morpholine-3-carboxylic acid] | 2.81 | >6803 | > 643 |  | 15 | > 100000 |
| COC(=O)C1=C(CN2CCO[C@H](C)[C@H]2C(=O)O)NC(c2nccs2)=N[C@H]1c1ccc(F)cc1Br [Example 106, (2R,3S)-4-[(R)-6-(2-Bromo-4-fluoro-phenyl)-5-methoxycarbonyl-2-thiazol-2-yl-3,6-dihydro-pyrimidin-4-ylmethyl]-2-methyl-morpholine-3-carboxylic acid] | 6.32 | >47619 | > 730 |  | 2.1 | > 100000 |
| CCOC(=O)C1=C(CN2CC(F)(F)CC[C@H]2C(=O)O)NC(c2nccs2)=N[C@H]1c1ccc(F)cc1Br [Example 107, (R)-4-(2-Bromo-4-fluoro-phenyl)-6-((S)-2-carboxy-5,5-difluoro-piperidin-1-ylmethyl)-2-thiazol-2-yl-1,4-dihydro-pyrimidine-5-carboxylic acid ethyl ester] | 1.89 | 16000 | 510 (≈ 868 µM) |  | 1.5 | 24000 |
| CCOC(=O)C1=C(CN2CC(F)(F)CC[C@@H]2C(=O)O)NC(c2nccs2)=N[C@H]1c1ccc(F)cc1Br [Example 108, (R)-4-(2-Bromo-4-fluoro-phenyl)-6-((R)-2-carboxy-5,5-difluoro-piperidin-1-ylmethyl)-2-thiazol-2-yl-1,4-dihydro-pyrimidine-5-carboxylic acid ethyl ester] | 4.88 | 1784 | 410 (≈ 698 µM) |  | 18 | 33000 |
| COC(=O)C1=C(CN2CC(F)(F)CC[C@H]2C(=O)O)NC(c2nccs2)=N[C@H]1c1cccc(F)c1Cl [Example 109, (R)-6-((S)-2-Carboxy-5,5-difluoro-piperidin-1-ylmethyl)-4-(2-chloro-3-fluoro-phenyl)-2-thiazol-2-yl-1,4-dihydro-pyrimidine-5-carboxylic acid methyl ester] | 1.25 | 12500 | > 657 |  | 4.4 | 55000 |
| CCOC(=O)C1=C(CN2CC(F)(F)CC[C@H]2C(=O)O)NC(c2nccs2)=N[C@H]1c1ccccc1Cl [Example 111, (R)-6-((S)-2-Carboxy-5,5-difluoro-piperidin-1-ylmethyl)-4-(2-chloro-phenyl)-2-thiazol-2-yl-1,4-dihydro-pyrimidine-5-carboxylic acid ethyl ester] | 5.31 | 17241 | > 620 |  | 5.8 | > 100000 |
| COC(=O)C1=C(CN2CCO[C@H](C)[C@H]2C(=O)O)NC(c2nccs2)=N[C@H]1c1ccc(F)c(F)c1 [Example 113, (2R,3S)-4-[(S)-6-(3,4-Difluoro-phenyl)-5-methoxycarbonyl-2-thiazol-2-yl-3,6-dihydro-pyrimidin-4-ylmethyl]-2-methyl-morpholine-3-carboxylic acid] | 0 | >6061 | > 615 |  | 16 | > 100000 |
| COC(=O)C1=C(CN2CCO[C@H](C)[C@H]2C(=O)O)NC(c2nccs2)=N[C@H]1c1ccc(F)c(F)c1F [Example 114, (2R,3S)-4-[(R)-5-Methoxycarbonyl-2-thiazol-2-yl-6-(2,3,4-trifluoro-phenyl)-3,6-dihydro-pyrimidin-4-ylmethyl]-2-methyl-morpholine-3-carboxylic acid] | 0 | >10753 | > 617 |  | 9.3 | > 100000 |
| COC(=O)C1=C(CN2CCO[C@H](C)[C@H]2C(=O)O)NC(c2nccs2)=N[C@H]1c1cccc(F)c1Cl [Example 115, (2R,3S)-4-[(R)-6-(2-Chloro-3-fluoro-phenyl)-5-methoxycarbonyl-2-thiazol-2-yl-3,6-dihydro-pyrimidin-4-ylmethyl]-2-methyl-morpholine-3-carboxylic acid] | 1.55 | >43478 | > 642 |  | 2.3 | > 100000 |
| CCOC(=O)C1=C(CN2CCO[C@H](C)[C@H]2C(=O)O)NC(c2nccs2)=N[C@H]1c1ccccc1Cl [Example 117, (2R,3S)-4-[(R)-6-(2-Chloro-phenyl)-5-ethoxycarbonyl-2-thiazol-2-yl-3,6-dihydro-pyrimidin-4-ylmethyl]-2-methyl-morpholine-3-carboxylic acid] | 0 | 66667 | > 628 |  | 1.5 | > 100000 |
| CCOC(=O)C1=C(CN2CCO[C@H](C)[C@H]2C(=O)O)NC(c2nccs2)=N[C@H]1c1cccc(F)c1Cl [Example 118, (2R,3S)-4-[(R)-6-(2-Chloro-3-fluoro-phenyl)-5-ethoxycarbonyl-2-thiazol-2-yl-3,6-dihydro-pyrimidin-4-ylmethyl]-2-methyl-morpholine-3-carboxylic acid] | 0.1 | >200000 | > 630 |  | 0.5 | > 100000 |
| COC(=O)C1=C(CN2CCO[C@H](C(C)C)[C@H]2C(=O)O)NC(c2nccs2)=N[C@H]1c1ccc(F)cc1Cl [Example 120, (2R,3S)-4-[(R)-6-(2-Chloro-4-fluoro-phenyl)-5-methoxycarbonyl-2-thiazol-2-yl-3,6-dihydro-pyrimidin-4-ylmethyl]-2-isopropyl-morpholine-3-carboxylic acid] | 2.58 | 16875 |  | 81000 | 4.8 |  |
| CCOC(=O)C1=C(CN2CCOC[C@H]2C(=O)O)NC(c2nccs2)=N[C@H]1c1ccc(F)cc1Br [Example 122, (S)-4-(((R)-6-(2-Bromo-4-fluorophenyl)-5-(ethoxycarbonyl)-2-(thiazol-2-yl)-3,6-dihydropyrimidin-4-yl)methyl)morpholine-3-carboxylic acid] | 1.58 | 55769 | > 722 |  | 1.3 | 73000 |
| CCOC(=O)C1=C(CN2CCOC[C@H]2C(=O)O)NC(c2nccs2)=N[C@H]1c1ccc(Br)cc1 [Example 123, (3S)-4-[[(4S)-4-(4-Bromophenyl)-5-ethoxycarbonyl-2-(1,3-thiazol-2-yl)-1,4-dihydropyrimidin-6-yl]methyl]morpholine-3-carboxylic acid] | 3.14 | 19900 | > 666 |  | 2.8 | 56000 |
| CCOC(=O)C1=C(CN2CCOC[C@H]2C(=O)O)NC(c2nccs2)=N[C@H]1c1ccccc1Br [Example 127, (S)-4-(((R)-6-(2-Bromophenyl)-5-(ethoxycarbonyl)-2-(thiazol-2-yl)-3,6-dihydropyrimidin-4-yl)methyl)morpholine-3 carboxylic acid] | 2.44 | >14925 | > 672 |  | 6.7 | > 100000 |
| CCOC(=O)C1=C(CN2CC(F)(F)C[C@H]2C(=O)O)NC(c2nccs2)=N[C@H]1c1ccc(Br)cc1 [Example 130, (2S)-1-[[(4S)-4-(4-Bromophenyl)-5-ethoxycarbonyl-2-(1,3-thiazol-2-yl)-1,4-dihydropyrimidin-6-yl]methyl]-4,4-difluoropyrrolidine-2-carboxylic acid] | 3.92 | 2833 | > 625 |  | 6 | 17000 |
